Assay results published in patent US9073879B2, “Oxazole derivatives useful as modulators of FAAH” (MERCK SHARP & DOHME CORP., priority 2010, dated 2015).
pIC50: −log10 of the molar value.

Assays:
human FAAH [1] = biological target: T1, human FAAH (Homo sapiens, UniProt O00519); test: FAAH cell lysate assay (human lysate, FAAH_CHO, AAMCA substrate); format: biochemical; conditions: lysate of CHO cells expressing human FAAH; read-out: human lysate_IC50
T1 construct: The full length FAAH was subcloned into the mammalian expression vector, pcDEF.neo, using XbaI and EcoRI restriction sites; expressed in transfected cells
T1 sequence (O00519 1-579): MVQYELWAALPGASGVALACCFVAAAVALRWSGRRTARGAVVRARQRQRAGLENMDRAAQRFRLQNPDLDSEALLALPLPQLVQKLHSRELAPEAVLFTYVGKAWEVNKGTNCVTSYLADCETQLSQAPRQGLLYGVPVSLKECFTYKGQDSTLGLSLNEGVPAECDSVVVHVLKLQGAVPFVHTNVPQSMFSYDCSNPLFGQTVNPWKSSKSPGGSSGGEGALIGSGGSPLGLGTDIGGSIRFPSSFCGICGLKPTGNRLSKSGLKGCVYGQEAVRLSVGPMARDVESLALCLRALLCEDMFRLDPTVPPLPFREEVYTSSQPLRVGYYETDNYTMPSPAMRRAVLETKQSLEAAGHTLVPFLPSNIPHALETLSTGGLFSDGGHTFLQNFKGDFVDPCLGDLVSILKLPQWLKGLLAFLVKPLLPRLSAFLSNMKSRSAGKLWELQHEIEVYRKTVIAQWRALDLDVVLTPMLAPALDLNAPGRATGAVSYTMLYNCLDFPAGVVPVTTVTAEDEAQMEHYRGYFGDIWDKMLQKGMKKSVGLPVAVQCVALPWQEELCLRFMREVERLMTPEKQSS
Source text: (§1) To assist in assay development stable cell lines for human, murine and rat full length FAAH were developed. Human FAAH cDNA (Accession No: NM_001441.1) was purchased from Origene (Rockville, Md.). The full length FAAH was subcloned into the mammalian expression vector, pcDEF.neo, using XbaI and EcoRI restriction sites and used for stable cell line generation.
CHO cells expressing FAAH were used to prepare either crude cell lysate or microsome fractions. To harvest cells, tissue culture media was decanted, the monolayer washed three times with Ca^++Mg^++ free PBS and cells recovered after 15 mm in enzyme free dissociation media (Millipore Corp, Billerica, Mass.). Cells were collected by centrifuging at 2000 rpm for 15 min. and the cell pellet re-suspended with 50 mM HEPES (pH 7.4) containing 1 mM EDTA and the protease inhibitors aprotinin (1 mg/ml) and leupeptin (100 μM). The suspension was sonicated at 4° C. and the cell lysate recovered after centrifuging at 12,000×g (14,600 rpm, SS34 rotor) for 20 min at 4° C. to form a crude pellet of cell debris, nuclei, peroxisomes, lysosomes, and mitochondria; the supernatant or cell lysate was used for FAAH enzyme assay. In some cases, microsomes fractions enriched in FAAH were prepared by centrifuging the cell lysate further at 27,000 rpm (100,000×g) in SW28 rotor for 50 minutes at 4° C. The pellet containing FAAH-enriched microsomes was re-suspend in 50 mM HEPES, (pH 7.4) 1 mM EDTA, and any remaining DNA sheared by passage of material through a 23 gauge needle and aliquots of enzyme were store at −80° C. prior to use.
(American Radiolabeled Chemicals; 1 mCi/ml) with FAAH (Life Sciences (1995), 56, 1999-2005 and Journal of Pharmacology and Experimented Therapeutics (1997), 283, 729-734), Analytical. Biochemistry (2003), 318:270-5. In addition, routine assays were performed monitoring hydrolysis of araehidonyl-7-amino-4-methylcoumarin amide (AAMCA) by following increase in fluorescence upon release of 7-amino 4-methyl coumarin (λEX=355 nm, (λEM=460 nm). Analytical. Biochemistry (2005). 343:143-51
(§2) Assays are performed on either cell lysate or microsome fractions prepared as described or in whole cell format employing either the fluorescent substrate AAMCA (Cayman chemical, Ann Arbor, Mich.) or ^3H-anandamide ([ETHANOLAMINE-1-3H] American Radiolabeled Chemicals; 1 mCi/ml). The cell lysate or microsome assay is performed in black PerkinElmer OptiPlates-384F by adding FAAH_CHO (whole cell (shown as human Whole cell or Human WC), cell lysate (shown as human lysate of human LY) or microsome) in assay buffer (50 mM Phosphate, pH 8.0, 1 mM EDTA, 200 mM KCl, 0.2% glycerol, 0.1% fatty acid free BSA) to each well, followed by either DMSO or compound and allowed to incubate at 22-25° C. for fifteen minutes. AAMCA substrate was used to achieve a final concentration of 1 μM and reaction allowed to proceed at room temperature for 1-3 hours. Fluorescent release as a measure of FAAH activity was monitored by reading the plate in an Envision plate Reader (Ex: 360/40 nM; Em: 460/40 nM). Whole cell assay is conducted with cells harvested after rinsing tissue culture flasks three times with Ca^++Mg^++ free PBS, incubating for 10 min in Enzyme free dissociation media and centrifuging for 5 minutes at 1,000 rpm in table top centrifuge. Cells are resuspended in assay buffer at desired cell number in (4×10^4 cells/assay in 96-well format; 1×10^4 cells/assay in 384-well format) and assayed as described.

human FAAH [2] = biological target: T1, human FAAH; test: FAAH whole cell assay (human Whole cell, FAAH_CHO, AAMCA substrate); format: cell-based; conditions: CHO cells expressing human FAAH, whole cell format; read-out: human cell_IC50
Source text: as §1
Murine (accession number NM_010173) and Rat FAAH (accession number NM_024132) was amplified by reverse transcriptase polymerase chain reaction (RT-PCR) from brain cDNA (BD Biosciences, San Jose, Calif.) using primers 1 and 2 or primers 1 and 3 respectively (see Table). The resulting PCR product was ligated into pCR4 TOPO and DNA sequence confirmed. The full length murine FAAH was subcloned into the mammalian expression vector, pcDEFneo using either EcoRI (murine) or KpnI and EcoRI (rat) restriction sites. Chinese hamster ovary cells (CHO) were transfected following manufacturers protocol (AMAXA). Forty eight hours post transfection, cells were trypsinized and transferred to 96 well plates in Iscove's DMEM media supplemented with 2 mM Glutamine, 10% fetal calf serum, 1 mg/ml geneticin and HT Supplement (0.1 mM sodium hypoxanthine, 0.016 mM thymidine) in order to isolate single clones. Following selection in geneticin, individual clones were selected and FAAH activity was assessed using a whole cell fluorescent anandamide assay, modified from Ramarao et al (2005). Following removal of tissue culture media cells were dislodged following addition of Cellstripper (Mediatech, Inc. Manassas, Va.) and transferred to 96 well black clear bottom assay plate, centrifuged at 1,000 rpm for 3 mins and media removed and replaced with assay buffer (50 mM Tris pH8.0, 1 mM EDTA, 0.1% fatty acid free BSA). The reaction was initiated by addition of fluorescent substrate, AMC Arachidonoyl Amide (Cayman Chemical, Ann Arbor, Mich.) to 1 μM and reaction allowed to proceed for 2 hours at room temperature. Release of fluorescence was monitored in a CytoFluor Multiplate Reader. Cells expressing the highest amount of FAAH activity were selected for study with FAAH inhibitors.
as §2

Row | Compound | pIC50 (human FAAH [1]) | pIC50 (human FAAH [2])
1 | CS(=O)(=O)c1ccc(NC(=O)c2nc(-c3ccc(F)cc3)oc2Sc2ccc(Cl)cn2)cc1 [Example A5.1, 5-[(5-chloropyridin-2-yl)sulfanyl]-2-(4-fluorophenyl)-N-[4-(methylsulfonyl)phenyl]-1,3-oxazole-4-carboxamide] | 7.21 | 6.41
2 | CS(=O)(=O)N1CCC(NC(=O)c2nc(-c3ccc(F)cc3)oc2Sc2ccc(Cl)cn2)CC1 [Example A5.2, 5-[(5-chloropyridin-2-yl)sulfanyl]-2-(4-fluorophenyl)-N-[1-(methylsulfonyl)piperidin-4-yl]-1,3-oxazole-4-carboxamide] | 7.24 | 6.40
3 | COC(=O)c1ccc(NC(=O)c2nc(-c3ccc(F)cc3)oc2Sc2ccc(Cl)cn2)cc1 [Example A5.3, methyl 4-[({5-[(5-chloropyridin-2-yl)sulfanyl]-2-(4-fluorophenyl)-1,3-oxazol-4-yl}carbonyl)amino]benzoate] | 8.00 | 7.41
4 | Fc1ccc(-c2nc(COc3ccc4[nH]ncc4c3)c(Sc3ccc(Cl)cn3)o2)cc1 [Example B2.1, 5-({5-[(5-chloropyridin-2-yl)sulfanyl]-2-(4-fluorophenyl)-1,3-oxazol-4-yl}methoxy)-1H-indazole] | 8.52 | 7.70
5 | CSc1ccc(OCc2nc(-c3ccc(F)cc3)oc2Sc2ccc(Cl)cn2)cc1 [Example B2.2, 5-chloro-2-{[2-(4-fluorophenyl)-4-{[4-(methylsulfanyl)phenoxy]methyl}-1,3-oxazol-5-yl]sulfanyl}pyridine] | 7.26 | 6.29
6 | CS(=O)(=O)c1ccc(OCc2nc(-c3ccc(F)cc3)oc2Sc2ccc(Cl)cn2)cc1 [Example B2.3, 5-chloro-2-{[2-(4-fluorophenyl)-4-{[4-(methylsulfonyl)phenoxy]methyl}-1,3-oxazol-5-yl]sulfanyl}pyridine] | 7.27 | 6.27
7 | Fc1ccc(-c2nc(COc3ccc4c(c3)OCO4)c(Sc3ccc(Cl)cn3)o2)cc1 [Example B2.4, 2-({4-[(1,3-benzodioxol-5-yloxy)methyl]-2-(4-fluorophenyl)-1,3-oxazol-5-yl}sulfanyl)-5-chloropyridine] | 7.62 | 6.65
8 | COC(=O)c1ccc(OCc2nc(-c3ccc(F)cc3)oc2Sc2ccc(Cl)cn2)cn1 [Example B2.5, methyl 5-({5-[(5-chloropyridin-2-yl)sulfanyl]-2-(4-fluorophenyl)-1,3-oxazol-4-yl}methoxy)pyridine-2-carboxylate] | 7.70 | 6.84
9 | N#Cc1ccc(OCc2nc(-c3ccc(F)cc3)oc2Sc2ccc(Cl)cn2)cc1 [Example B2.6, 4-({5-[(5-chloropyridin-2-yl)sulfanyl]-2-(4-fluorophenyl)-1,3-oxazol-4-yl}methoxy)benzonitrile] | 7.33 | 6.44
10 | Clc1ccc(Sc2oc(C3CCOCC3)nc2COc2ccc3[nH]ncc3c2)cc1 [Example B2.17, 5-({5-[(4-chlorophenyl)sulfanyl]-2-(tetrahydro-2H-pyran-4-yl)-1,3-oxazol-4-yl}methoxy)-1H-indazole] |  | 7.01
11 | COC(=O)[C@H]1CC[C@@H](NCc2nc(-c3ccc(F)cc3)oc2Sc2ccc(Cl)cn2)CC1 [Example B5.11, methyl cis-4-[({5-[(5-chloropyridin-2-yl)sulfanyl]-2-(4-fluorophenyl)-1,3-oxazol-4-yl}methyl)amino] cyclohexanecarboxylate] |  | 7.30
12 | O[C@H]1CC[C@H](NCc2nc(C3CCOCC3)oc2Sc2ccc(Cl)cc2)CC1 [Example B5.13, trans-4-[({5-[(4-chlorophenyl)sulfanyl]-2-(tetrahydro-2H-pyran-4-yl)-1,3-oxazol-4-yl}methyl)amino] cyclohexanol] |  | 5.55
13 | COC(=O)[C@H]1CC[C@H](NCc2nc(C3CCOCC3)oc2Sc2ccc(Cl)cc2)CC1 [Example B5.14, methyl trans-4-[({5-[(4-chlorophenyl)sulfanyl]-2-(tetrahydro-2H-pyran-4-yl)-1,3-oxazol-4-yl}methyl)amino] cyclohexanecarboxylate] |  | 7.57
